What all share (type): biochemical
The test system of experiment [1] is Helianthus annuus EPSPS with 868-H6 mutations, SEQ ID NO:10. The experiment can be described thus: EPSPS substrate saturation kinetics, sunflower H6. The settings on record: PEP. The protocol: (§1) EPSPS activity was determined by quantifying the phosphate generated from the EPSPS reaction. Release of inorganic phosphate was coupled to reaction with 2-amino-6-mercapto-7-methylpurine ribonucleoside, catalyzed by purine-nucleoside phosphorylase (M R Webb, Proc. Natl. Acad. Sci. 89:4884-4887, 1992). The absorbance change that occurs was monitored at 360 nm, where the extinction is 11,200 M^−1 cm^−1, with a Spectramax plate reader (Molecular Devices). To determine kinetic parameters, the varied substrate was present at seven concentrations (the eighth being the blank, containing no substrate) ranging from 4 to 400 uM and the unvaried substrate present at saturation. […] Reactions were monitored with a Spectramax plate reader. […] KI was then calculated from the following form of the Michaelis-Menten equation for competitive inhibition: KI=KM[I]/(KM app−KM) KM approximates the dissociation constant of the enzyme-substrate complex while kcat is the rate of conversion of substrate to product when the substrate concentration is saturating. kcat/KM is a widely accepted parameter for catalytic efficiency when substrate concentration is low (˜KM). […] The parameter kcat/KM×KI is used to quantify both catalytic efficiency and insensitivity and thus the overall fitness of the enzyme.
(§2) Native EPSPS amino acid sequences of rice (Oryza sativa) (SEQ ID NO:7), sorghum (Sorghum halepense) (SEQ ID NO:8), and sunflower (Helianthus annus) (SEQ ID NO:9) including the chloroplast transit peptide sequences were assembled and analyzed for mapping the corresponding amino acid mutations from the maize 868-H6. […]
(§3) ChloroP Prediction Server (Emanuelsson, O. et al. 1999. Protein Sci. 8(5):978-84) was used to approximate the amino terminus of the mature EPSPS proteins. […] The synthetic genes were cloned into a plasmid vector and expressed, purified and analyzed as described in Example 1.

The target in experiment [2] is Helianthus annuus EPSPS with 868-H6 mutations, SEQ ID NO:10 (Helianthus annuus, UniProt A0A251S0N3, A489G/D475G/E144Q/E375S/E464G/G175A/L171C/Q70R/R514Q/S352A/T434S/T72W/V156R/V281L/V511R). The experiment can be described thus: EPSPS substrate saturation kinetics, sunflower H6. The procedure: as §1, §2, §3
The target in experiment [3] is Zea mays EPSPS variant 123-C1 (A2R, A4W, K84R, L98C, G102A, I208L, K243E, E391P, D402G), SEQ ID NO:6 (Zea mays, UniProt O24566, A1R/A3W/D401G/E390P/G101A/I207L/K242E/K83R/L97C). In words: EPSPS substrate saturation kinetics, 123-C1. The protocol: as §1, with “enzyme. […]” for “enzyme.”
The target of experiment [4] is T1, Zea mays EPSPS variant Zm-H6 (868-H6) with D196V (H6-D196V) (Zea mays, UniProt O24566, A1R/A3W/A415G/A71Q/D195V/D401G/E301S/E390G/G101A/I207L/K83R/L97C/T278A/T360S/T440Q/V437R).
T1 construct: shuffled variant 868-H6 plus D196V; E. coli BL21(DE3), Ni-NTA purified
T1 sequence (O24566 with tags, fused parts or gaps A1R/A3W/A71Q/K83R/L97C/G101A/D195V/I207L/T278A/E301S/T360S/E390G/D401G/A415G/V437R/T440Q): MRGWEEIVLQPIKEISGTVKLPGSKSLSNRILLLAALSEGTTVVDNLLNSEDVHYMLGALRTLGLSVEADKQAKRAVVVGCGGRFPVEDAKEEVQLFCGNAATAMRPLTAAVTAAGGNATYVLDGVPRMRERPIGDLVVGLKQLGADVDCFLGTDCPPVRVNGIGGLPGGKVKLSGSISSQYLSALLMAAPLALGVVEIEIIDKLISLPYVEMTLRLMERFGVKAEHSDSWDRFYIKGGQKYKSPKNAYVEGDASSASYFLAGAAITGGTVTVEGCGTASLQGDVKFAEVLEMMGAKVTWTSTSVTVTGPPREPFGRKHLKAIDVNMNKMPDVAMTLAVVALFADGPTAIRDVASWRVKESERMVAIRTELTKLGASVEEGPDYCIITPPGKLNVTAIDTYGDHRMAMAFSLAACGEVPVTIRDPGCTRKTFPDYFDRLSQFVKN
In words: Substrate saturation kinetic analysis with glyphosate, H6-D196V.

Where [5] appears, read: PEP as substrate, glyphosate as inhibitor.

The structures appear in SMILES notation.

Zea mays EPSPS variant 123-C1 (A2R, A4W, K84R, L98C, G102A, I208L, K243E, E391P, D402G), SEQ ID NO:6, sequence (O24566 entry or part of it A1R/A3W/K83R/L97C/G101A/I207L/K242E/E390P/D401G): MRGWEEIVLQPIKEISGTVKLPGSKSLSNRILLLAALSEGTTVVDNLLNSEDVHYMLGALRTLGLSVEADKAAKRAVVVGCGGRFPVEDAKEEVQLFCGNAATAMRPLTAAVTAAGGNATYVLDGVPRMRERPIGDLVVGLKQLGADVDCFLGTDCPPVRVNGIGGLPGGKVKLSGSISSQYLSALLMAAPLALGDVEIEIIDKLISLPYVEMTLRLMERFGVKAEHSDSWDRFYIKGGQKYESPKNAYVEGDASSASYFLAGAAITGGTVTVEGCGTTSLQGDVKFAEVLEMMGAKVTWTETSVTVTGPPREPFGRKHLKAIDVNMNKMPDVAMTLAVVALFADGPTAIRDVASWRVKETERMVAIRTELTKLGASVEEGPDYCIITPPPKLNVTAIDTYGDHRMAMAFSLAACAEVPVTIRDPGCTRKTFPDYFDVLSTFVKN
Helianthus annuus EPSPS with 868-H6 mutations, SEQ ID NO:10 (Helianthus annuus, UniProt A0A251S0N3, A489G/D475G/E144Q/E375S/E464G/G175A/L171C/Q70R/R514Q/S352A/T434S/T72W/V156R/V281L/V511R), sequence (A0A251S0N3 67-518 with the stated changes): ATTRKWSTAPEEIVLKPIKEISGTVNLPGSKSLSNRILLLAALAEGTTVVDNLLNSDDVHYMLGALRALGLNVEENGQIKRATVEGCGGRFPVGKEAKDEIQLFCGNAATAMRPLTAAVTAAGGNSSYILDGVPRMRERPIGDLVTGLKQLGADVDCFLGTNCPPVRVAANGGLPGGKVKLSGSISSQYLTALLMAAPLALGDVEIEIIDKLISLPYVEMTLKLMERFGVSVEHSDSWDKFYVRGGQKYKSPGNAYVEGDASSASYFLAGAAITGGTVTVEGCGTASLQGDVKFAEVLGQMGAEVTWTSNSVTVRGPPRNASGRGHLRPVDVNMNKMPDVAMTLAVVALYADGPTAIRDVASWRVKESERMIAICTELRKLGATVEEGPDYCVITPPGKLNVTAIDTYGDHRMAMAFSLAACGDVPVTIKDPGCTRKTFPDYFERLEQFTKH

For the compound `C=C(OP(=O)(O)O)C(=O)O` [PEP, phosphoenolpyruvate], the “kcat/KM relative to maize H6” value in experiment [1] was 38%.

As for `O=C(O)CNCP(=O)(O)O` [glyphosate, N-phosphonomethylglycine], the Ki – broadly, a measure of affinity in units of concentration, obtained from inhibition or displacement – turned out to be 1580 µM in experiment [2], 559 µM in experiment [3] and 699 µM in experiment [4]. Besides, the “(kcat/KM)*KI” value was 8960 in experiment [2] (setting [5]); 10100 in experiment [3] (setting [5]); 1860 in experiment [4] (substrate saturation, H6-D196V).

For the origin of these results see patent US11549123B2, “Plant EPSP synthases and methods of use” (PIONEER HI-BRED INTERNATIONAL, INC., priority 2015, dated 2023).
